The values below come from patent publication US7407645B2, “Bioconjugates of metal complexes of nitrogen-containing macrocyclic ligands” (Metaphore Pharmaceuticals, Inc., priority 1995, dated 2008).

The nature of the data set: Relaxivity R1 from proton relaxation times (T1), inversion-recovery, 20 MHz. The format is physicochemical. Also noted: unit not given here. Conditions: 100 mM Hepes buffer, pH=7.4, 40° C., slope of 1/T1 versus concentration. The protocol:
Relaxivity measurements of the complex of Example 1 was determined.
Proton relaxation times (T1) of the sample in 100 mM Hepes buffer, pH=7.4, at 40° C. were determined from a monoexponential curve fit obtained from inversion-recovery pulse sequences (180°-τ-90°) with a Bruker PC 120/125/10 VTs NMR process analyzer. The spectrometer was calibrated for each sample to assure accurate duration of 90° and 180° radio frequency pulses and appropriate magnetic field strength to match the 20 MHz system operating frequency. The relaxivity (R1) was obtained from the slope of a plot of 1/T1 versus the concentration of paramagnetic compound.

In the case of “[Manganese (II) dichloro 2,3-(R,R)-Cyclohexano-6-(S)-{3-(lithocholylamino)-propyl}-1,4,7,10,13-penta-azacclopentadecane] [Example 1]”, the “relaxivity R1” value is recorded as 6.09.
